Results taken from ChEMBL document CHEMBL4613297, “Peptides Mimicking the β7/β8 Loop of HIV-1 Reverse Transcriptase p51 as "Hotspot-Targeted" Dimerization Inhibitors” (ACS Med Chem Lett, 2020).
Activity calls are given as the source filed them. The calls are words filed in the database; no cut-off is given here. Where a SMILES comes first, the peptide text is derived from it. Bridges are numbered along the chain shown (N, C = ends).

Columns and labels:
[1] = target: Human immunodeficiency virus type 1 reverse transcriptase (Human immunodeficiency virus 1) (UniProt Q72547); experiment: Inhibition of recombinant HIV-1 group M subtype B reverse transcriptase p51/p66 expressed in Escherichia coli M15 assessed as change in melting temperature at 100 uM incubated for 1 hr by sypro orange dye based differential scanning fluorimetric analysis; settings: HIV-1 M:B
[2] = target: T1, Human immunodeficiency virus type 1 reverse transcriptase (Human immunodeficiency virus 1, UniProt Q72547); experiment: Inhibition of HIV-1 reverse transcriptase His-tagged p51 heterodimerization with HIV-1 reverse transcriptase p66 incubated for 16 hrs by ELISA
[3] = target: T1, Human immunodeficiency virus type 1 reverse transcriptase; experiment: Inhibition of recombinant HIV-1 BH10 reverse transcriptase p51/p66 expressed in Escherichia coli preincubated for 10 mins followed by D38/25PGA template-primer addition and measured after 10 to 30 secs by denaturing PAGE based single nucleotide incorporation assay; parameters: species or system Human immunodeficiency virus type 1 BH10
[4] = target: Human immunodeficiency virus type 1 reverse transcriptase (Human immunodeficiency virus 1) (UniProt Q72547); experiment: Inhibition of RNase H activity of recombinant HIV-1 BH10 reverse transcriptase p51/p66 expressed in Escherichia coli at 100 uM; settings: Human immunodeficiency virus type 1 BH10
[5] = target: T1, Human immunodeficiency virus type 1 reverse transcriptase; experiment: (§1) Inhibition of recombinant HIV-1 BH10 reverse transcriptase p51/p66 expressed in Escherichia coli assessed as reduction in recovery of DNA polymerase activity preincubated with 15% acetonitrile for 15 hrs followed by compound addition and acetonitrile reduced to <1% using poly(rA)/oligo(dT)16 as template/primer in presence of [3H]dTTP; parameters: species or system Human immunodeficiency virus type 1 BH10
[6] = target: Human immunodeficiency virus type 1 reverse transcriptase (Human immunodeficiency virus 1) (UniProt Q72547); experiment: as §1, with “activity at 200 uM” for “activity”, “[3H]dTTP relative to control” for “[3H]dTTP”; settings: Human immunodeficiency virus type 1 BH10

Compound | ΔTm [1] [°C] | IC50 [2] [µM] | IC50 [3] [µM] | inhibition [4] | IC50 [5] [µM] | inhibition [6] [%]
CC[C@H](C)[C@@H]1NC(=O)[C@@H](N)CSSC[C@@H](C(=O)O)NC(=O)[C@H](CCC(=O)O)NC(=O)[C@H](CC(N)=O)NC(=O)[C@H](CC(N)=O)NC1=O (H-CINNEC-OH; disulfide 1-6) | -15.8 | 37 | 109 | inactive | 203 | 
CC[C@H](C)[C@@H]1NC(=O)[C@H](CO)NC(=O)[C@H](N)CSSC[C@@H](C(=O)O)NC(=O)[C@@H]2CCCN2C(=O)[C@H]([C@@H](C)O)NC(=O)[C@H](CCC(=O)O)NC(=O)[C@H](CC(N)=O)NC(=O)[C@H](CC(N)=O)NC1=O | -15.8 | 61 | > 145 | inactive | > 250 | 43
CC[C@H](C)[C@H](NC(=O)CNC(=O)[C@@H]1CCCN1C(=O)[C@@H](NC(=O)[C@H](CCC(=O)O)NC(=O)[C@H](CC(N)=O)NC(=O)[C@H](CC(N)=O)NC(=O)[C@@H](NC(=O)[C@H](CO)NC(=O)[C@@H]1CCCN1C(=O)[C@@H](NC(=O)[C@@H](NC(=O)[C@@H](N)Cc1ccccc1)[C@@H](C)O)[C@@H](C)CC)[C@@H](C)CC)C(C)O)C(=O)N[C@@H](CCCNC(=N)N)C(=O)N[C@@H](Cc1ccc(O)cc1)C(=O)O (single isomer, unassigned) | -15.6 |  | > 145 | inactive |  | 
CC[C@H](C)[C@@H]1NC(=O)[C@H](CCCNC(=N)N)NC(=O)[C@H](Cc2ccc(O)cc2)NC(=O)[C@H]2CCCN2C(=O)[C@@H]2CCCN2C(=O)[C@H](Cc2ccccc2)NC(=O)[C@H]([C@H](C)O)NC(=O)[C@H]([C@@H](C)CC)NC(=O)[C@@H]2CCCN2C(=O)[C@H](CC(N)=O)NC(=O)[C@H]([C@@H](C)CC)NC(=O)[C@@H](CO)NC(=O)[C@H](CC(N)=O)NC(=O)[C@@H](CCC(=O)O)NC(=O)[C@H]([C@H](C)O)NC(=O)[C@@H]2CCCN2C(=O)CNC1=O | -15 |  | > 145 | inactive |  | 
H-IPSINNETPGI-OH | -13.6 | > 150 | > 145 | inactive |  | 
Cc1cn([C@@H]2O[C@H](CO[Si](C)(C)C(C)(C)C)[C@]3(C=CS(=O)(=O)O3)[C@H]2O[Si](C)(C)C(C)(C)C)c(=O)[nH]c1=O | -1.4 |  |  |  |  | 
CC[C@H](C)[C@@H]1NC(=O)CNC(=O)[C@@H]2CCCN2C(=O)[C@H]([C@@H](C)O)NC(=O)C(CCC(=O)O)NC(=O)[C@H](CC(N)=O)NC(=O)C(CC(N)=O)NC(=O)[C@@H]([C@@H](C)CC)NC(=O)[C@H](CO)NC(=O)[C@@H]2CCCN2C(=O)[C@H]([C@@H](C)CC)NC(=O)[C@@H](N)CSSC[C@@H](C(=O)O)NC1=O (stereo partly drawn) | -14.5 | 137 | > 145 | inactive | > 250 | < 5
